# Target: T1, BTK (Homo sapiens, UniProt Q06187)
# T1 construct: endogenous in cells; host or cells: Mino cells
# Assay: BTK degradation activity test in Mino cells
# Type: cell-based
# Conditions: 16 h incubation, Western blot or Elisa
# In short: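 Mino cells treated with a concentration series of compound for 16 h, then lysed; total protein by BCA. BTK quantified by Western blot or ELISA, degradation rate calculated against blank control, and DC50 fitted from the degradation curve.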
# T1 sequence (Q06187 whole entry): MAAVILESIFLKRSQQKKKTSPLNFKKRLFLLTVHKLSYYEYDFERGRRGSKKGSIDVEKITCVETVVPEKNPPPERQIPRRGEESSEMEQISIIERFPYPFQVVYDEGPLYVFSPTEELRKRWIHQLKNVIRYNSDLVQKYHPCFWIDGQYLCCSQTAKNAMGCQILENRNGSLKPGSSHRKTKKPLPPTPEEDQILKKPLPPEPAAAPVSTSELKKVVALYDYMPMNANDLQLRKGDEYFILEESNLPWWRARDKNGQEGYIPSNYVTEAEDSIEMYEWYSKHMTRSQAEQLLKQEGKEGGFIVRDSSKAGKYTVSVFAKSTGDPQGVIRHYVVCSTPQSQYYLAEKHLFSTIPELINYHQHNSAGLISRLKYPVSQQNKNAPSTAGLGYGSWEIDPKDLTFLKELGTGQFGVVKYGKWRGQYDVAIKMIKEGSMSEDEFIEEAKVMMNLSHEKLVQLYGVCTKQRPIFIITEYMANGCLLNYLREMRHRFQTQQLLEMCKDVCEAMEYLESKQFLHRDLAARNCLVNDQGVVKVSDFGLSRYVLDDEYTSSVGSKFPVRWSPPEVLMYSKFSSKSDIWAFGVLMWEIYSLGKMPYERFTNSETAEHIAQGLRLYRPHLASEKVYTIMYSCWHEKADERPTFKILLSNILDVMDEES
row,DC50,SMILES
1,< 1 nM,"CN1CCN(C2CC3CC2N(c2nnc(C(N)=O)c(Nc4ccc(C5(C)CCN(C6CN(c7ccc8c(c7)C(=O)N(C7CCC(=O)NC7=O)C8=O)C6)CC5)cc4)n2)C3)C1=O (stereo not shown) [Compound 105, 5-((4-(1-(1-(2-(2,6-dioxopiperidin-3-yl)-1,3-dioxoisoindol-5-yl)azetidin-3-yl)-4-methylpiperidin-4-yl)phenyl)amino)-3-(6-(3-methyl-2-oxoimidazolin-1-yl)-2-azabicyclo[2.2.1]heptan-2-yl)-1,2,4-triazin-6-carboxamide]"
2,< 1 nM,"CN1CCN(C2CC3CC2N(c2nnc(C(N)=O)c(Nc4ccc5c(c4)CCN(C4CN(c6ccc7c(c6)C(=O)N(C6CCC(=O)NC6=O)C7=O)C4)C5)n2)C3)C1=O (stereo not shown) [Compound 106, 5-((2-(1-(2-(2,6-dioxopiperidin-3-yl)-1,3-dioxoisoindol-5-yl)azetidine-3-yl)-1,2,3,4-tetrahydroisoquinolin-6-yl)amino)-3-(6-(3-methyl-2-oxoimidazolin-1-yl)-2-azabicyclo[2.2.1]heptan-2-yl)-1,2,4-triazin-6-carboxamide]"
3,< 1 nM,"CN1CCN(C2CC3CC2N(c2nnc(C(N)=O)c(Nc4ccc5c(c4)CCN(CC4CCN(c6ccc7c(c6)C(=O)N(C6CCC(=O)NC6=O)C7=O)CC4)C5)n2)C3)C1=O (stereo not shown) [Compound 107, 5-((2-((1-(2-(2,6-dioxopiperidin-3-yl)-1,3-dioxoisoindol-5-yl)piperidin-4-yl)methyl)-1,2,3,4-tetrahydroisoquinolin-6-yl)amino)-3-(6-(3-methyl-2-oxoimidazolin-1-yl)-2-azabicyclo[2.2.1]heptan-2-yl)-1,2,4-triazin-6-carboxamide]"
4,> 1 nM,"CN1CCN(C2CC3CC2N(c2nnc(C(N)=O)c(Nc4ccc(N5CCN(CC6CCN(c7ccc8c(c7)C(=O)N(C7CCC(=O)NC7=O)C8=O)CC6)CC5)cc4)n2)C3)C1=O (stereo not shown) [Compound 108, 5-((4-(4-((1-(2-(2,6-dioxopiperidin-3-yl)-1,3-dioxoisoindol-5-yl)piperidin-4-yl)methyl)piperazin-1-yl)phenyl)amino)-3-(6-(3-methyl-2-oxoimidazolin-1-yl)-2-azabicyclo[2.2.1]heptan-2-yl)-1,2,4-triazin-6-carboxamide]"
5,< 1 nM,"CN1CCN(C2CC3CC2N(c2nnc(C(N)=O)c(Nc4ccc(C5CCN(C6CCN(c7ccc8c(c7)C(=O)N(C7CCC(=O)NC7=O)C8=O)CC6)CC5)cc4)n2)C3)C1=O (stereo not shown) [Compound 109, 5-((4-(1′-(2-(2,6-dioxopiperidin-3-yl)-1,3-dioxoisoindol-5-yl)-[1,4′-bipiperidin]-4-yl)phenyl)amino)-3-(6-(3-methyl-2-oxoimidazolin-1-yl)-2-azabicyclo[2.2.1]heptan-2-yl)-1,2,4-triazin-6-carboxamide]"
6,< 1 nM,CN1CCN(C2CC3CC2N(c2nnc(C(N)=O)c(Nc4ccc(N5CCC(N6CCN(CC#Cc7ccc8c(c7)CN(C7CCC(=O)NC7=O)C8=O)CC6)CC5)cc4)n2)C3)C1=O (stereo not shown) [Compound 110]
7,< 1 nM,"CN1CCN(C2CC3CC2N(c2nnc(C(N)=O)c(Nc4ccc(C5CCN(CC6CCN(c7cc8c(cc7F)C(=O)N(C7CCC(=O)NC7=O)C8=O)CC6)CC5)cc4)n2)C3)C1=O (stereo not shown) [Compound 111, 5-((4-(1-((1-(2-(2,6-dioxopiperidin-3-yl)-6-fluoro-1,3-dioxoisoindol-5-yl)piperidin-4-yl)methyl)piperidin-4-yl)phenyl)amino)-3-(6-(3-methyl-2-oxoimidazolin-1-yl)-2-azabicyclo[2.2.1]heptan-2-yl)-1,2,4-triazin-6-carboxamide]"
8,< 1 nM,"CN1CCN(C2CC3CC2N(c2nnc(C(N)=O)c(Nc4ccc(C5CCN(CC6CCN(c7ccc8c(c7)C(=O)N(C7CCC(=O)NC7=O)C8)CC6)CC5)cc4)n2)C3)C1=O (stereo not shown) [Compound 112, 5-((4-(1-((1-(2-(2,6-dioxopiperidin-3-yl)-3-oxoisoindol-5-yl)piperidin-4-yl)methyl)piperidin-4-yl)phenyl)amino)-3-(6-(3-methyl-2-oxoimidazolin-1-yl)-2-azabicyclo[2.2.1]heptan-2-yl)-1,2,4-triazin-6-carboxamide]"
9,< 1 nM,"CN1CCN(C2CC3CC2N(c2nnc(C(N)=O)c(Nc4ccc(C5CCN(CC6CCN(c7ccc8c(c7)CN(C7CCC(=O)NC7=O)C8=O)CC6)CC5)cc4)n2)C3)C1=O (stereo not shown) [Compound 113, 5-((4-(1-((1-(2-(2,6-dioxopiperidin-3-yl)-1-oxoisoindol-5-yl)piperidin-4-yl)methyl)piperidin-4-yl)phenyl)amino)-3-(6-(3-methyl-2-oxoimidazolin-1-yl)-2-azabicycloheptan-2-yl)-1,2,4-triazin-6-carboxamide]"
10,< 1 nM,"CN1CCN(C2CC3CC2N(c2nnc(C(N)=O)c(Nc4ccc(C5CCN(CC6CCN(c7ccc8c(c7)n(C)c(=O)n8C7CCC(=O)NC7=O)CC6)CC5)cc4)n2)C3)C1=O (stereo not shown) [Compound 114, 5-((4-(1-((1-(1-(2,6-dioxopiperidin-3-yl)-3-methyl-2-oxo-2,3-dihydro-1H-benzo[d]imidazol-5-yl)piperidin-4-yl)methyl)piperidin-4-yl)phenyl)amino)-3-(6-(3-methyl-2-oxoimidazolin-1-yl)-2-azabicyclo[2.2.1]heptan-2-yl)-1,2,4-triazin-6-carboxamide]"
11,< 1 nM,"NC(=O)c1nnc(N2CCC[C@@H](N3CCN(CC(F)(F)F)C3=O)C2)nc1Nc1ccc(N2CCC(CN3CCN(c4cc5c(cc4F)C(=O)N(C4CCC(=O)NC4=O)C5=O)CC3)CC2)cc1 (stereo partly drawn) [Compound 142, 5-((4-(4-((4-(2-(2,6-dioxopiperidin-3-yl)-6-fluoro-1,3-dioxoisoindolin-5-yl)piperazin-1-yl)methyl)piperidin-1-yl)phenyl)amino)-3-((R)-3-(2-oxo-3-(2,2,2-trifluoroethyl)imidazolin-1-yl)piperidin-1-yl)-1,2,4-triazin-6-carboxamide]"
12,< 1 nM,"CN1CCN([C@@H]2CCCN(c3nnc(C(N)=O)c(Nc4ccc(N5CCN(C[C@H]6CCN(c7ccc(N8CCC(=O)NC8=O)cc7)C6)CC5)c(F)c4)n3)C2)C1=O [Compound 151, 5-((4-(4-(((R)-1-(4-(2,4-dioxotetrahydropyrimidin-1(2H)-yl)phenyl)pyrrolidin-3-yl)methyl)piperazin-1-yl)-3-fluorophenyl)amino)-3-((R)-3-(3-methyl-2-oxoimidazolin-1-yl)piperidin-1-yl)-1,2,4-triazin-6-carboxamide]"
13,< 1 nM,"CN1CCN([C@@H]2CCCN(c3nnc(C(N)=O)c(Nc4ccc(N5CCN(C[C@H]6CCN(c7ccc(C(=O)N[C@H]8CCC(=O)NC8=O)nc7)C6)CC5)c(F)c4)n3)C2)C1=O [Compound 153, 5-((4-(4-(((R)-1-(6-(((S)-2,6-dioxopiperidin-3-yl)carbamoyl)pyridin-3-yl)pyrrolidin-3-yl)methyl)piperazin-1-yl)-3-fluorophenyl)amino)-3-((R)-3-(3-methyl-2-oxoimidazolin-1-yl)piperidin-1-yl)-1,2,4-triazin-6-carboxamide]"
14,< 1 nM,"CN1CCN([C@@H]2CCCN(c3nnc(C(N)=O)c(Nc4ccc(N5CCN(C[C@@H]6CCN(c7ccc(C(=O)N[C@H]8CCC(=O)NC8=O)nc7)C6)CC5)c(F)c4)n3)C2)C1=O [Compound 154, 5-((4-(4-(((S)-1-(6-(((S)-2,6-dioxopiperidin-3-yl)carbamoyl)pyridin-3-yl)pyrrolidin-3-yl)methyl)piperazin-1-yl)-3-fluorophenyl)amino)-3-((R)-3-(3-methyl-2-oxoimidazolin-1-yl)piperidin-1-yl)-1,2,4-triazin-6-carboxamide]"
15,< 1 nM,"CN1CCN([C@@H]2CCCN(c3nnc(C(N)=O)c(Nc4ccc(C5CCN(C[C@@H]6CCN(c7cc8c(cc7F)C(=O)N(C7CCC(=O)NC7=O)C8=O)C6)CC5)cc4)n3)C2)C1=O (stereo partly drawn) [Compound 155, 5-((4-(1-(((3S)-1-(2-(2,6-dioxopiperidin-3-yl)-6-fluoro-1,3-dioxoisoindolin-5-yl)pyrrolidin-3-yl)methyl)piperidin-4-yl)phenyl)amino)-3-((R)-3-(3-methyl-2-oxoimidazolin-1-yl)piperidin-1-yl)-1,2,4-triazin-6-carboxamide]"
16,< 1 nM,"CN1CCN([C@@H]2CCCN(c3nnc(C(N)=O)c(Nc4ccc(C5CCN(C[C@H]6CCN(c7cc8c(cc7F)C(=O)N(C7CCC(=O)NC7=O)C8=O)C6)CC5)cc4)n3)C2)C1=O (stereo partly drawn) [Compound 156, 5-((4-(1-(((3R)-1-(2-(2,6-dioxopiperidin-3-yl)-6-fluoro-1,3-dioxoisoindolin-5-yl)pyrrolidin-3-yl)methyl)piperidin-4-yl)phenyl)amino)-3-((R)-3-(3-methyl-2-oxoimidazolin-1-yl)piperidin-1-yl)-1,2,4-triazin-6-carboxamide]"
17,< 1 nM,"CN1CCN([C@@H]2CCCN(c3nnc(C(N)=O)c(Nc4ccc(C5CCN(C[C@@H]6CCN(c7ccc8c(c7)C(=O)N(C7CCC(=O)NC7=O)C8=O)C6)CC5)c(F)c4)n3)C2)C1=O (stereo partly drawn) [Compound 157, 5-((4-(1-(((3S)-1-(2-(2,6-dioxopiperidin-3-yl)-1,3-dioxoisoindolin-5-yl)pyrrolidin-3-yl)methyl)piperidin-4-yl)-3-fluorophenyl)amino)-3-((R)-3-(3-methyl-2-oxoimidazolin-1-yl)piperidin-1-yl)-1,2,4-triazin-6-carboxamide]"
18,< 1 nM,"CN1CCN([C@@H]2CCCN(c3nnc(C(N)=O)c(Nc4ccc(C5CCN(C[C@H]6CCN(c7ccc8c(c7)C(=O)N(C7CCC(=O)NC7=O)C8=O)C6)CC5)c(F)c4)n3)C2)C1=O (stereo partly drawn) [Compound 158, 5-((4-(1-(((3R)-1-(2-(2,6-dioxopiperidin-3-yl)-1,3-dioxoisoindolin-5-yl)pyrrolidin-3-yl)methyl)piperidin-4-yl)-3-fluorophenyl)amino)-3-((R)-3-(3-methyl-2-oxoimidazolin-1-yl)piperidin-1-yl)-1,2,4-triazin-6-carboxamide]"
19,< 1 nM,"CN1CCN([C@@H]2CCCN(c3nnc(C(N)=O)c(Nc4ccc(N5CCN(C[C@@H]6CCN(c7ccc8c(c7)C(=O)N(C7CCC(=O)NC7=O)C8=O)C6)CC5)c(Cl)c4)n3)C2)C1=O (stereo partly drawn) [Compound 159, 5-((3-chloro-4-(4-(((3S)-1-(2-(2,6-dioxopiperidin-3-yl)-1,3-dioxoisoindolin-5-yl)pyrrolidin-3-yl)methyl)piperazin-1-yl)phenyl)amino)-3-((R)-3-(3-methyl-2-oxoimidazolidin-1-yl)piperidin-1-yl)-1,2,4-triazin-6-carboxamide]"
